These are literature values, as cited in the CATMoS acute toxicity set (Mansouri et al. 2021).

Several values for one entry are separate records, joined by “and”; a condition that tells them apart may be missing. Equal entries are not always repeated.

The nature of the data set: rat acute oral toxicity. To be noted: in vivo. The source says:
[…]The data set underlying the modeling effort for this project was initially compiled by NICEATM and U.S. EPA’s CCTE. Briefly, LD50 data were collected from rat acute oral systemic toxicity tests, including limit tests, ranges/confidence intervals, and discrete LD50 values. The full data set included 21,200 LD50 entries for 15,688 substances. […] Data were reviewed to ensure that LD50 values with obvious errors in the extracted data such as unit conversion errors (e.g., comma and decimal separator misplacements) were either fixed or removed. After this review, 16,209 LD50 values remained. Many of the chemicals represented had multiple LD50 entries, requiring that a single representative value per Chemical Abstracts Service Registry Number (CASRN) identifier be defined to facilitate modeling efforts. Based on ATWG feedback and to define the representative LD50 as a protective value while accounting for the distribution across multiple LD50s, the median of the lowest quartile was computed using only discrete LD50 values (omitting limit test data and range and confidence interval data). A detailed summary of the data compilation is available online on the NICEATM webpage dedicated to the collaborative modeling project (NTP 2020).
[…][…] For categorical designations, limit test and range/confidence interval LD50 data were integrated wherever possible. As such, the number of chemicals with end point values/calls varies across the modeling end points (Table 3) based on whether chemicals had representative LD50 values and/or other data. If a chemical had both, the representative value was used to determine categorical calls rather than limit test data. Some data were useable only for certain end points and categories depending on the thresholds. For example, ranges that spanned multiple hazard categories were considered only for the binary (very toxic/nontoxic) end points and omitted from rendering a determination for hazard category assignment.
[…]The final data set comprising 11,992 chemicals was split into training and evaluation sets […], respectively. This process was performed semirandomly by ordering chemicals based on the five end points (categorical and continuous LD50 values) and partitioning every fourth record into the evaluation set accordingly. This approach was taken to ensure an equivalent distribution of the LD50 values and the different hazard categories between the training and the evaluation sets without supervised sampling of the chemicals based on structures (Figure 1A). The sources of the chemical structures were also kept equivalent between the two sets, with chemical structures obtained from DSSTox, being the highest quality, representing over 75% of each set (Figure 1B).
As to `CC(C(=O)O)c1ccc2c(c1)C(=O)Cc1ccccc1O2` (configuration not stated), the 50% lethal dose (LD50) is 106 mg/kg. For `NCC1CC2CCC1C2` (configuration not stated), the LD50 is 1410 mg/kg. Regarding `Cc1cc(Cl)ccc1O`, the LD50 is 1190 mg/kg. For the molecule `C=CCN(C1=NCCN1)c1c(Cl)cccc1Cl`, the LD50 was 500 mg/kg and 233 mg/kg. In the case of `CCCCCOC(CBr)c1ccc(C2CCCC2)cc1` (configuration not stated), the LD50 is 250 mg/kg. For the molecule `CCN(CC)CCCC(C)Nc1c2cc(Cl)ccc2nc2ccc(OC)cc12` (configuration not stated), the LD50 was 4400 mg/kg. `CCOP(=O)(OCC)SCC(=O)NC(C)(C)C#N`: the LD50 was 3.5 mg/kg. As for `NCCOC(=O)C=CC(=O)OCCN`, the LD50 was 4920 mg/kg. With `O=C(O)CN(CCOCCOCCN(CC(=O)O)CC(=O)O)CC(=O)O`, the LD50 was 4000 mg/kg and 3590 mg/kg.

For the molecule `CC(=Cc1ccccc1)CC(=O)N(CCO)CCO`, the LD50 is 1500 mg/kg. Consider `c1ccc(C2=C(c3ccccc3)SCCO2)cc1`, for which the LD50 is 3000 mg/kg. `CC(C)CCN(C)C`: the LD50 was 225 mg/kg. Turning to `CC1(C)Cc2cccc(OC(=O)NCSc3ccc(Cl)cc3)c2O1`, the LD50 is 25 mg/kg. Regarding `CCOCN(C(=O)CCl)c1c(C)cccc1OC(C)C`, the LD50 was 2700 mg/kg. Turning to `CCOP(=O)(OCC)SCc1ccccc1`, the LD50 is 660 mg/kg. Regarding `Cc1cccc(OCC(O)CNC(C)(C)C)c1C` (configuration not stated), the median lethal dose (LD50) was 575 mg/kg. As for `O=C(O)C(c1ccccc1)c1ccccc1`, the LD50 was 5540 mg/kg.

Take `Oc1c(Cl)cc(Cl)c(Cl)c1Cl`: the LD50 was 140 mg/kg.

Regarding `CC(C)CCC(=O)O`, the 50% lethal dose (LD50) is 2050 mg/kg. On to `O=c1oc2cc(Cl)ccc2n1CO`, for which the 50% lethal dose (LD50) was 2800 mg/kg. Regarding `CCN(C(=O)c1cc(Cl)nc(Cl)c1)C1CC1`, the LD50 was 78 mg/kg. `CNC(=O)Oc1c(C(C)C)ccc(C)c1N(C)C`: the LD50 was 67 mg/kg. On to `CCOP(=S)(OCC)OC(C)=CC(=O)OC`, for which the LD50 was 0.14 mg/kg. `Cc1ccc(NC2=NCCN2)c(Cl)c1`: the LD50 is 420 mg/kg.

With `OC[C@H]1O[C@@H]2O[C@H]3[C@H](O)[C@@H](O)[C@@H](O[C@H]4[C@H](O)[C@@H](O)[C@@H](O[C@H]5[C@H](O)[C@@H](O)[C@@H](O[C@H]6[C@H](O)[C@@H](O)[C@@H](O[C@H]7[C@H](O)[C@@H](O)[C@@H](O[C@H]8[C@H](O)[C@@H](O)[C@@H](O[C@H]1[C@H](O)[C@H]2O)O[C@@H]8CO)O[C@@H]7CO)O[C@@H]6CO)O[C@@H]5CO)O[C@@H]4CO)O[C@@H]3CO`, the LD50 is 18800 mg/kg. For the molecule `ClCC=C(Cl)CCl`, the LD50 was 224 mg/kg. Turning to `CCCCCCCCCCCCOC(=O)c1ccccc1`, the median lethal dose (LD50) was 34500 mg/kg. As for `O=C(OCC1(COC(=O)c2cccnc2)CCCC(COC(=O)c2cccnc2)(COC(=O)c2cccnc2)C1O)c1cccnc1`, the LD50 is 10000 mg/kg.

Consider `COc1ccc(C(=O)CCC(=O)O)c2ccoc12`, for which the 50% lethal dose (LD50) was 1230 mg/kg. `OCCN(CCO)c1nc(N2CCCCC2)c2nc(N(CCO)CCO)nc(N3CCCCC3)c2n1`: the median lethal dose (LD50) was 8400 mg/kg. Consider `CCOP(=S)(OCC)SCSc1cc(Cl)ccc1Cl`, for which the LD50 was 44 mg/kg. On to `CCCOCCOC(=O)C1=C(C)NC(C)=C(C(=O)OCCOCCC)C1c1cccc([N+](=O)[O-])c1`, for which the LD50 is 1470 mg/kg. `COC(=O)N(CCCl)N=O`: the LD50 was 20 mg/kg. On to `CN(C)[C@@H]1C(O)=C(C(N)=O)C(=O)[C@@]2(O)C(O)=C3C(=O)c4c(O)cccc4[C@@](C)(O)[C@H]3[C@H](O)[C@@H]12`, for which the LD50 was 4800 mg/kg. On to `Nc1cc(N)cc(C(F)(F)F)c1`, for which the LD50 was 380 mg/kg. On to `CN(SC(Cl)(Cl)Cl)C(=O)Oc1cccc2c1OC(C)(C)C2`, for which the LD50 is 125 mg/kg. On to `Nc1ccc(S(=O)(=O)O)c2cccc(S(=O)(=O)O)c12`, for which the LD50 was 56000 mg/kg. With `Cc1c(Cc2cc(C(C)(C)C)c(O)c(C(C)(C)C)c2)c(C)c(Cc2cc(C(C)(C)C)c(O)c(C(C)(C)C)c2)c(C)c1Cc1cc(C(C)(C)C)c(O)c(C(C)(C)C)c1`, the LD50 was 1500 mg/kg. As for `OC(CBr)C(O)C(O)C(O)CBr` (configuration not stated), the median lethal dose (LD50) was 1000 mg/kg. Regarding `CCCCCN(CCCCC)N=O`, the LD50 is 1750 mg/kg. As for `CCOC(=O)c1ncn2c1CN(C)C(=O)c1cc(F)ccc1-2`, the LD50 is 4200 mg/kg. For the molecule `CCOC(=O)C=Cc1ccc2c(c1)OCO2`, the 50% lethal dose (LD50) is 948 mg/kg.
